Data set [1] can be described thus: Oxygen radical absorbance capacity assay (ORAC-FL). The note with it: ORAC-FL, Trolox equivalents. How it is done:
The antioxidant activity of KTs was determined using the ORAC-FL method described by Dávalos et al.[30] using fluorescein as a fluorescent probe with minor modification. Briefly, fluorescein and antioxidant were incubated in a black 96-well microplate (Nunc) for 15 min at 37 °C. The 2,2’-azobis(amidinopropane) dihydrochloride (AAPH) was then added quickly using the built-in injector of Varioskan Flash plate reader (Thermo Scientific).
Results are expressed in the Trolox equivalents (TE) unit in relation to radical scavenging properties of Trolox.

The nature of data set [2]: in vitro. It is filed as cell-based. The note with it: human. On the procedure:
The culture medium was refreshed after 24 h of incubation and 100 µl of six different concentrations (1–1000 µM) of test compounds or DMSO (0.1%) were then added. The cell viability was monitored by colourimetric assay with 3-[4,5-dimethylthiazol-2-yl]-2,5-diphenyl-tetrazolium bromide (MTT).
In this sense, all new KTs were submitted to the in vitro cell viability test (MTT assay) using human hepatocellular carcinoma cell line (HepG2)[26], as the most accepted probe to evaluate hepatotoxic effects. For this experiment, six different concentrations from 1 to 1000 µM were used.

For data set [3], the target named is EeAChE (Electrophorus electricus, UniProt O42275). In words: biochemical. To be noted: mean ± SEM. How it is done:
(§1) Ellman’s protocol was followed to perform the anticholinesterasic activity. Briefly, the reaction was carried out in a final volume of 3 ml of a phosphate-buffered solution (0.1 M) at pH =8.0 containing (2.625 µl, 0.35 mM) of 5,5’-dithiobis-2-nitrobenzoic acid (DTNB), 40 µl 1% w/v Bovine Albumin Serum phosphate-buffered solution (BSA), (29 µl, 0.035 U/ml) of EeAChE or (60 µl, 0.05 U/ml) of eqBuChE, and 3 µl of tested compound, which were incubated for 10 min. Then, the acetylthiocholine iodide or butyrylthiocholine was added, and the reaction was incubated for additional 15 min. The activity in absence of compound was used as control.

Data set [4] concerns the target T1, eqBuChE (Equus caballus, UniProt P81908).
T1 construct: serum horse BuChE (eqBuChE); from tissue; host or cells: horse serum
The data set can be described thus: biochemical. To be noted: for IC50: mean ± SEM. How it is done:
as §1

[5] abbreviates: HepG2 cells, 1 µM, percent of cell viability vs DMSO-treated control, read-out: HepG2 cell viability.
Where [6] appears, read: HepG2 cells, 3 µM, percent of cell viability vs DMSO-treated control, read-out: HepG2 cell viability.
Setting [7] is: HepG2 cells, 10 µM, percent of cell viability vs DMSO-treated control, read-out: HepG2 cell viability.
Where [8] appears, read: HepG2 cells, 30 µM, percent of cell viability vs DMSO-treated control, read-out: HepG2 cell viability.
Where [9] appears, read: HepG2 cells, 100 µM, percent of cell viability vs DMSO-treated control, read-out: HepG2 cell viability.
Where [10] appears, read: HepG2 cells, 300 µM, percent of cell viability vs DMSO-treated control, read-out: HepG2 cell viability.
The mark [11] stands for this setting: HepG2 cells, 1000 µM, percent of cell viability vs DMSO-treated control, read-out: HepG2 cell viability.

“And” between values parts separate entries of the source, which are not always exact repeats. Equal entries are not always repeated. Where two headings read alike, the source gives them in different places. A value given as a limit tells only on which side of the number the result lay.

Chain of EeAChE (O42275 24-633): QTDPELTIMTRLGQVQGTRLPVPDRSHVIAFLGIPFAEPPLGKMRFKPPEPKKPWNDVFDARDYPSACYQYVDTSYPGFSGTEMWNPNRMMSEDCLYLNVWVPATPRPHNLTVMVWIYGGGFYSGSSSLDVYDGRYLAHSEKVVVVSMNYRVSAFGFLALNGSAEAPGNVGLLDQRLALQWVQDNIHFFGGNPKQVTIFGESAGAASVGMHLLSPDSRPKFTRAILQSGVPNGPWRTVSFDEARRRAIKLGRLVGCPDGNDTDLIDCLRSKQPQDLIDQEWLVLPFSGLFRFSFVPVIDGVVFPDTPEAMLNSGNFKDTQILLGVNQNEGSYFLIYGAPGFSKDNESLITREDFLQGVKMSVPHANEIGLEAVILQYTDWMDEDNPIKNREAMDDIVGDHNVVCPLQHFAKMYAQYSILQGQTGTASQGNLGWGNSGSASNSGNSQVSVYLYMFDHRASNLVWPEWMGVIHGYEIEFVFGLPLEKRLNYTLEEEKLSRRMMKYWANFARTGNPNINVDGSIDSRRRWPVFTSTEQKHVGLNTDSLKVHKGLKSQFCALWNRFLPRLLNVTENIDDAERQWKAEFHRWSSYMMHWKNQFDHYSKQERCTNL
T1 sequence (P81908 whole entry): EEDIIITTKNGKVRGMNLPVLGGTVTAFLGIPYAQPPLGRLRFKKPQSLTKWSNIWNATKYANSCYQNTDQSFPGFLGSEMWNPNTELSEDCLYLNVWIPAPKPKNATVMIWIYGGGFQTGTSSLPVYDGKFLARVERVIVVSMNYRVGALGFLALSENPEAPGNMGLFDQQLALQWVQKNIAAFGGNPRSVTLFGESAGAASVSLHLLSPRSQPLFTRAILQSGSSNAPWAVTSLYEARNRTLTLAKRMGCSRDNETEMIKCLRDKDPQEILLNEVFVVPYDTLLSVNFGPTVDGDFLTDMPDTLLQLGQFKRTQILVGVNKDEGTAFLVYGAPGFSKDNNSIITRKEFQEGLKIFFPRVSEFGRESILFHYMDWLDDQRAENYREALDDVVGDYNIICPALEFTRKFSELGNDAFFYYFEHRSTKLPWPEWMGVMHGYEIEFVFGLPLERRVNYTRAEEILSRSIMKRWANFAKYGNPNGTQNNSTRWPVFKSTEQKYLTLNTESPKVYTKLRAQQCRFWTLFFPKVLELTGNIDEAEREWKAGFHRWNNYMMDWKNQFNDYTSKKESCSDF

Consider `COc1cc(/C=C/C(=O)O)ccc1O` [FA, ferulic acid, reference compound], for which the ORAC in data set [1] is 3.74±0.22 TE and 3.74 TE.

On to `COc1ccc(C2c3oc(CO)cc(=O)c3Oc3nc4c(c(N)c32)CCCC4)cc1` (stereo not drawn) [KT2e], for which the viability at 1 µM in data set [2] (setting [5]) stood at 95.5 ± 5.5%. Moreover, in data set [2] (setting [6]), the viability at 3 µM was determined as 96.1 ± 7.1%. For the same compound, the viability at 10 µM in data set [2] (setting [7]) is 95.9 ± 5.6%. Also, in data set [2] (setting [8]), the viability at 30 µM was 98.3 ± 3.8%. Besides, the viability at 100 µM in data set [2] (setting [9]) worked out at 86.1 ± 3.8%. Besides, the viability at 300 µM in data set [2] (setting [10]) was found to be 70.9 ± 4.5%. In addition, in data set [2] (setting [11]), the viability at 1000 µM came to 41.7 ± 3%. Besides, the IC50 in data set [3] is 1140 ± 20 nM; in data set [4], 7.57 ± 0.13 µM. Also, in data set [1], the ORAC was determined as 4.46±0.27 TE.

Turning to `Nc1c2c(nc3c1C(c1cccc(F)c1)c1oc(CO)cc(=O)c1O3)CCCC2` (stereo not drawn) [KT2g], in data set [2] (setting [5]), the viability at 1 µM was 101 ± 7.1%. In data set [2] (setting [6]), the viability at 3 µM stood at 96.5 ± 7.4%. Besides, the viability at 10 µM in data set [2] (setting [7]) came out at 99.1 ± 3.8%. Also, the viability at 30 µM in data set [2] (setting [8]) was determined as 109 ± 6.1%. In addition, the viability at 100 µM in data set [2] (setting [9]) amounted to 103 ± 6.4%. Also, the viability at 300 µM in data set [2] (setting [10]) turned out to be 90.5 ± 9.6%. The viability at 1000 µM in data set [2] (setting [11]) was found to be 62.6 ± 9.7%. In addition, the IC50 in data set [3] worked out at 2140 ± 120 nM; in data set [4], 4.54 ± 0.2 µM. Also, the ORAC in data set [1] worked out at 4.34±0.17 TE.

In the case of `Nc1c2c(nc3c1C(c1ccc(F)cc1)c1oc(CO)cc(=O)c1O3)CCCC2` (stereo not drawn) [KT2h], in data set [2] (setting [5]), the viability at 1 µM was 97.4 ± 2.3%. Moreover, the viability at 3 µM in data set [2] (setting [6]) came out at 95.9 ± 3.8%. Also, the viability at 10 µM in data set [2] (setting [7]) amounted to 100 ± 1.5%. For the same compound, the viability at 30 µM in data set [2] (setting [8]) was determined as 101.4 ± 0.6%. Further, the viability at 100 µM in data set [2] (setting [9]) stood at 102 ± 1.8%. In addition, the viability at 300 µM in data set [2] (setting [10]) worked out at 87.2 ± 6.7%. Besides, the viability at 1000 µM in data set [2] (setting [11]) was 55.3 ± 6%. This compound also yielded an IC50 in data set [3] of 3440 ± 40 nM. This compound had an inhibition at 10 µM in data set [4] (at 10 μM, Table 2 footnote b) below 50%. For the same compound, in data set [1], the ORAC was determined as 4.69±0.18 TE.

For `Nc1c2c(nc3c1C(c1ccccc1Cl)c1oc(CO)cc(=O)c1O3)CCCC2` (stereo not drawn) [KT2i], the viability at 1 µM in data set [2] (setting [5]) worked out at 98.6 ± 1.4%. Also, the viability at 3 µM in data set [2] (setting [6]) was 100 ± 1.9%. Further, the viability at 10 µM in data set [2] (setting [7]) was found to be 99.4 ± 1.2%. Besides, the viability at 30 µM in data set [2] (setting [8]) turned out to be 105 ± 2.6%. For the same compound, in data set [2] (setting [9]), the viability at 100 µM turned out to be 95.2 ± 4.7%. The viability at 300 µM in data set [2] (setting [10]) turned out to be 64.4 ± 6.3%. Besides, the viability at 1000 µM in data set [2] (setting [11]) stood at 23.1 ± 6%. Further, the IC50 amounted to 760 ± 90 nM in data set [3] and 8.54 ± 0.12 µM in data set [4]. Also, in data set [1], the ORAC stood at 4.84±0.06 TE.

In the case of `Nc1c2c(nc3c1C(c1cccc(Cl)c1)c1oc(CO)cc(=O)c1O3)CCCC2` (stereo not drawn) [KT2j], the viability at 1 µM in data set [2] (setting [5]) was 97.6 ± 2%. Besides, the viability at 3 µM in data set [2] (setting [6]) worked out at 101 ± 5.4%. In addition, in data set [2] (setting [7]), the viability at 10 µM amounted to 105 ± 5.5%. The viability at 30 µM in data set [2] (setting [8]) was 99.6 ± 2.4%. For the same compound, the viability at 100 µM in data set [2] (setting [9]) was 102 ± 6.9%. For the same compound, the viability at 300 µM in data set [2] (setting [10]) worked out at 52.7 ± 8.3%. Also, the viability at 1000 µM in data set [2] (setting [11]) worked out at 14.5 ± 6.4%. Also, the IC50 in data set [3] amounted to 820 ± 50 nM; in data set [4], 4.19 ± 0.11 µM. The ORAC in data set [1] is listed as 4.67±0.31 TE.

Consider `Nc1c2c(nc3c1C(c1cccc(Br)c1)c1oc(CO)cc(=O)c1O3)CCCC2` (stereo not drawn) [KT2k], for which, in data set [2] (setting [5]), the viability at 1 µM amounted to 101 ± 4.8%. For the same compound, in data set [2] (setting [6]), the viability at 3 µM was found to be 104 ± 8.9%. The viability at 10 µM in data set [2] (setting [7]) is 94.9 ± 2.6%. Besides, the viability at 30 µM in data set [2] (setting [8]) came out at 95.8 ± 2.5%. Also, in data set [2] (setting [9]), the viability at 100 µM was determined as 101 ± 3.1%. Moreover, the viability at 300 µM in data set [2] (setting [10]) came out at 60.1 ± 10.4%. The viability at 1000 µM in data set [2] (setting [11]) was found to be 37.2 ± 5.9%. Also, the IC50 came to 740 ± 80 nM in data set [3] and 3.9 ± 0.09 µM in data set [4]. The ORAC in data set [1] was 2.61±0.11 TE.

For `Nc1c2c(nc3ccccc13)CCCC2` [Tacrine, tacrine, reference compound], in data set [2], the viability at 1 µM worked out at 112 ± 4%, the viability at 3 µM was found to be 114 ± 4.8%, the viability at 10 µM stood at 108 ± 3.4% and the viability at 30 µM turned out to be 110 ± 4.2%. In data set [2], the viability at 100 µM is 102 ± 2.4%, the viability at 300 µM was 42.4 ± 2% and the viability at 1000 µM came to 10.9 ± 2%. Also, the ORAC in data set [1] is recorded as 0.2 ± 0.1 TE.

The values are drawn from PMC6263107 (Journal of Enzyme Inhibition and Medicinal Chemistry, 2018).
